# In article PMC10805800 (Cell Discovery, 2024):
# Experiments:
# Assay type in all cases: binding
# [1] = molecular target: T1, LRRK2 (Leucine-rich repeat kinase 2) (Homo sapiens, UniProt Q5S007); test: cryo-EM structure at […] Å; also ADP-Glo kinase inhibition (RCKWm)
# T1 construct: full-length LRRK2
# [2] = molecular target: T2, LRRK2 (Leucine-rich repeat kinase 2) (Homo sapiens, UniProt Q5S007, M1732R); test: cryo-EM structure at […] Å; also ADP-Glo kinase inhibition
# T2 construct: LRRK2^RCKWm (ROC-COR-KIN-WD40, without ARM-ANK-LRR domains)
# T2 sequence (Q5S007 1327-2527 M1732R): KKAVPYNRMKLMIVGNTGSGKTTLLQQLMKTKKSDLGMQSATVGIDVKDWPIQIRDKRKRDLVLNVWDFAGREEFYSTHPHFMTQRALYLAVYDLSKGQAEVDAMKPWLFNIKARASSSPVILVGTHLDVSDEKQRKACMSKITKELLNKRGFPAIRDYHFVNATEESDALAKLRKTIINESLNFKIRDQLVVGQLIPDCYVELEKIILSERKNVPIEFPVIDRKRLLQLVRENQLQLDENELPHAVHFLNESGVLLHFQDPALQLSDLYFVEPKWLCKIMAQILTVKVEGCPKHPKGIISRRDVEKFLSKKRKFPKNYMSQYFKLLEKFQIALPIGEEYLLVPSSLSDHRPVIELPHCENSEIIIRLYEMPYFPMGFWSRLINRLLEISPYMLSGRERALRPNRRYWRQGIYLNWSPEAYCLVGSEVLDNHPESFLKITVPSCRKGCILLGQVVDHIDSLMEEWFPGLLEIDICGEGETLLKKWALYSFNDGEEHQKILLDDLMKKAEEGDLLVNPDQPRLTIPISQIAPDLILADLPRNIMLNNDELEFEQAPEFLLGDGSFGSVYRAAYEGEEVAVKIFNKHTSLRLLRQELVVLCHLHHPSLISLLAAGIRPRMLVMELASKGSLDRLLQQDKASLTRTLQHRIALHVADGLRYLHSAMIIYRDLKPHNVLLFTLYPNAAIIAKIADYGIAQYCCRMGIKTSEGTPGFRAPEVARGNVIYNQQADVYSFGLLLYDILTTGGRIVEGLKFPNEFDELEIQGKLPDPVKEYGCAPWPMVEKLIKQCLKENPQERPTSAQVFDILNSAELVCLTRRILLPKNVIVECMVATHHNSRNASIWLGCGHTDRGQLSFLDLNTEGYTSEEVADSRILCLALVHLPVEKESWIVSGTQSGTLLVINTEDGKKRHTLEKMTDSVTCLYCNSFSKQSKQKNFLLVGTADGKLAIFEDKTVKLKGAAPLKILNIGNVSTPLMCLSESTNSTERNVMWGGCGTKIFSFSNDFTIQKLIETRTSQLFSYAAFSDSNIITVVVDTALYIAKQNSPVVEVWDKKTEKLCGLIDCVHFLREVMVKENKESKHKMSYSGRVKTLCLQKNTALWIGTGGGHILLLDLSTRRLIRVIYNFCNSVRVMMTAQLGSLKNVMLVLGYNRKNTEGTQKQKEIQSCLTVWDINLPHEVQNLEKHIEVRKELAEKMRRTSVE
# [3] = molecular target: T1, LRRK2 (Leucine-rich repeat kinase 2); test: cryo-EM structure at […] Å; also ADP-Glo kinase inhibition (RCKWm); remark: listed apart in the source
# T1 sequence (Q5S007 whole entry): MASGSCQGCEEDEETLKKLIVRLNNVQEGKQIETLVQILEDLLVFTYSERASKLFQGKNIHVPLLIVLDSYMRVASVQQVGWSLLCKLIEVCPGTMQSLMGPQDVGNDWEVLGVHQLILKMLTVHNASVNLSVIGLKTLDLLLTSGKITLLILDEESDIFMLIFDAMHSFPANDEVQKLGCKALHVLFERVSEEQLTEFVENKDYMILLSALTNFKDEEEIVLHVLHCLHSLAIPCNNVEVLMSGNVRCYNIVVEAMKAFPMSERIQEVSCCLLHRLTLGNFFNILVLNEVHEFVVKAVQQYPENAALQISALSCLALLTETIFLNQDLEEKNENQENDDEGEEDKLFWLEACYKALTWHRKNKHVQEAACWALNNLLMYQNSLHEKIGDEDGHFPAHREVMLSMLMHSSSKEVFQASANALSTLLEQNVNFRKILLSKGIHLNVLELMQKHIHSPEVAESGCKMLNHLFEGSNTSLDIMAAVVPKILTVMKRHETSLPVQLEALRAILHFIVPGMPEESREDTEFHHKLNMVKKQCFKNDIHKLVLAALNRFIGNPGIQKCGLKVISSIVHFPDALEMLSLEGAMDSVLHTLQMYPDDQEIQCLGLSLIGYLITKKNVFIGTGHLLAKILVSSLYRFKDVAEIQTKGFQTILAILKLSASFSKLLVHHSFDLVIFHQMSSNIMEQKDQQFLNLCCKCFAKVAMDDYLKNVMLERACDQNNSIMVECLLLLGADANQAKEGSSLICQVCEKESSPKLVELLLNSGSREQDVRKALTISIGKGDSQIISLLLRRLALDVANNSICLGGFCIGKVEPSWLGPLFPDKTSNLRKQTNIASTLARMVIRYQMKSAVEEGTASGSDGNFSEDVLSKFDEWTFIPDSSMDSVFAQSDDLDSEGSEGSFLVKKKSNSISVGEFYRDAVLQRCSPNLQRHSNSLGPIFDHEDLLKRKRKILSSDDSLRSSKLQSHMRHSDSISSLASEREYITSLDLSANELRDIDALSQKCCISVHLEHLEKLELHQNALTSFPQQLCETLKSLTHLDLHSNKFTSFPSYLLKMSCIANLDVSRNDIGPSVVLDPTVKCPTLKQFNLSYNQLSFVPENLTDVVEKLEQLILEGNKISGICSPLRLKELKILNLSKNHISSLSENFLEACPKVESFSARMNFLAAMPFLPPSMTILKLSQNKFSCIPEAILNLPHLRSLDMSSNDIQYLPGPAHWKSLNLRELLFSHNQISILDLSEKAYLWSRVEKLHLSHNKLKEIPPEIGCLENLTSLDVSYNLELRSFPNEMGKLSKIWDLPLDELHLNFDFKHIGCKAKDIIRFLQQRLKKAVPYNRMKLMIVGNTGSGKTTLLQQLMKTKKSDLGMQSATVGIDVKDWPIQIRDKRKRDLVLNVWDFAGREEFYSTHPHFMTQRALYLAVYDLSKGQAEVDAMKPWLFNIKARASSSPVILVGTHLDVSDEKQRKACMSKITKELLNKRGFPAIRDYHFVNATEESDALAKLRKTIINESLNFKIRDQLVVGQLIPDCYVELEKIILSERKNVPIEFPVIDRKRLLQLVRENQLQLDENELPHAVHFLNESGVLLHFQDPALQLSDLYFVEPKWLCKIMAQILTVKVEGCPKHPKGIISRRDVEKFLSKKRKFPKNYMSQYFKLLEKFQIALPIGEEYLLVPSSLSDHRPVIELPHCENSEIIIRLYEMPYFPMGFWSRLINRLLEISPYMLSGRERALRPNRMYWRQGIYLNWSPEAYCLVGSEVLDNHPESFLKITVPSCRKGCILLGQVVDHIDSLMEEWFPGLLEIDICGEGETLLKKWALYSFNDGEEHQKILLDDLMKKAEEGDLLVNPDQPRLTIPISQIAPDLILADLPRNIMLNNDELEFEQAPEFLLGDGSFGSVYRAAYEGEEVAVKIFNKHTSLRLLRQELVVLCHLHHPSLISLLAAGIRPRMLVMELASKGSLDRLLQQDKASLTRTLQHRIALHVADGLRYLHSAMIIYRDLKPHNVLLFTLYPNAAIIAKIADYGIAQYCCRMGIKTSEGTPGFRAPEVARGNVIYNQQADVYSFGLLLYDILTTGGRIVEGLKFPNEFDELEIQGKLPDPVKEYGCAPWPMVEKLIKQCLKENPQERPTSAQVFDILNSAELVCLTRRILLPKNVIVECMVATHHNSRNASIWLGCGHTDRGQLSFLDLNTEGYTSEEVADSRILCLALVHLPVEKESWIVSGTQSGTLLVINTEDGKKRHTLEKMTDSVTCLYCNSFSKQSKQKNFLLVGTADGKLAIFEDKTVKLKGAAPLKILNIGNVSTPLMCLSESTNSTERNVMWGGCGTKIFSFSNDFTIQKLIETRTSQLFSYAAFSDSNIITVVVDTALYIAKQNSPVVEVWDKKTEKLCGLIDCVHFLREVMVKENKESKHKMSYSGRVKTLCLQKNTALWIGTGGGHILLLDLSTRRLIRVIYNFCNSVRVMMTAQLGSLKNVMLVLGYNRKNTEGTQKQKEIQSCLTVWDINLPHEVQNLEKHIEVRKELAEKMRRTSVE
smiles,measurement,setting,value
Cc1ccc(C(=O)Nc2ccc(CN3CCN(C)CC3)c(C(F)(F)F)c2)cc1C#Cc1cnc2[nH]ncc2c1 [GZD-824],cryo-EM structure at 3.6 Å; also ADP-Glo kinase inhibition (RCKWm),[1],GZD-824 and ponatinib are analogous compounds and bind to LRRK2 in a similar manner
COc1cc(C(=O)N2CCC(N3CCN(C)CC3)CC2)ccc1Nc1ncc2c(n1)N(C)c1ccccc1C(=O)N2C [LRRK2-IN-1],cryo-EM structure at 3.5 Å; also ADP-Glo kinase inhibition,[2],8U7H (LRRK2^RCKWm–GNE-7915) and 8FO7 (LRRK2^RCKWm–LRRK2-IN-1)
CNC(=O)c1cc(Oc2ccc(NC(=O)Nc3cc(C(C)(C)C)nn3-c3ccc4ncccc4c3)c(F)c2)ccn1 [rebastinib],cryo-EM structure at 3.7 Å; also ADP-Glo kinase inhibition (RCKWm),[3],"8U8B (LRRK2–rebastinib), 8U8A (LRRK2–ponatinib), 8U7L (LRRK2–GZD-824)"
